# Source: patent US11352370B2, “Mutant KRAS inhibitors” (H. LEE MOFFITT CANCER CENTER AND RESEARCH INSTITUTE, INC., priority 2015, dated 2022)
# Target: mt G12D KRas (Homo sapiens, UniProt P01116, G12D)
# Test: Mant-GDP assay (inhibition of GTP displacing mant-GDP)
# Assay type: binding
# Details: for displacing mant-GDP from mt G12D KRas (in words): assay optimization, FIG. 1A
# mt G12D KRas, sequence (P01116 1-188 isoform P01116-2 G12D): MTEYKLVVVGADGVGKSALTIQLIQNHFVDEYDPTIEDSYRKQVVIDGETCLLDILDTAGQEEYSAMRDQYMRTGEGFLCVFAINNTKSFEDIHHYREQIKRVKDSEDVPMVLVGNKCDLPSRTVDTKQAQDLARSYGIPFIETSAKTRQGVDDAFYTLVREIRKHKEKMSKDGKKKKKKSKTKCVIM
SMILES,displacing mant-GDP from mt G12D KRas (in words),"IC50 (GTP titration in the absence of compounds, FIG. 3C, read-out: IC50 of GTP to displace mant-GDP)"
Nc1nc2c(ncn2[C@@H]2O[C@H](COP(=O)(O)OP(=O)(O)O)[C@@H](O)[C@H]2O)c(=O)[nH]1 [GDP],very effective,
Nc1nc2c(ncn2[C@@H]2O[C@H](COP(=O)(O)OP(=O)(O)OP(=O)(O)O)[C@@H](O)[C@H]2O)c(=O)[nH]1 [GTP],very effective,620 nM
